Reference: PMC11062899, “De novo development of small cyclic peptides that are orally bioavailable” (Nature Chemical Biology, 2023)
Several values for one entry are separate records, joined by “and”; a condition that tells them apart may be missing. Equal values may be shown once.

What was measured:
human α-thrombin = human α-thrombin (Homo sapiens, UniProt P00734); assay: Sub-library screen for active and permeable cyclic peptides (PAMPA plus thrombin inhibition); assay type: biochemical; settings: crude, slopes normalized to DMSO; for Residual thrombin activity: Top sample: PAMPA acceptor well after 14 h, 5 μM donor; for Residual thrombin activity: Equilibrated sample: donor sample diluted to theoretical equilibrium (1 μM in assay)
In short: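 Acylated cyclic peptides at 5 μM in PBS pH 7.4 with 5% DMSO were run through PAMPA for 14 h at room temperature. Acceptor wells and a diluted donor sample at 3 μM, representing maximum permeability, were preincubated 10 min with human α-thrombin (6 nM stock). Z-Gly-Gly-Arg-AMC (150 μM stock) fluorescence was then read for 30 min at 25 °C, and inhibition was taken against a no-peptide control.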

[1] = Passive artificial membrane permeability (PAMPA)

Row | SMILES | Residual thrombin activity: Top sample (human α-thrombin) | Residual thrombin activity: Equilibrated sample (human α-thrombin) | also measured
1 | N#Cc1ccc(C[C@@H]2NC(=O)[C@@H](NC(=O)c3ccc(Cl)s3)CCCSCc3ccc(cc3)CSCCNC(=O)C[C@H]3CCCN3C2=O)cc1 [C3-X35-L3] | 103.5 | 94.6 | 
2 | N#Cc1ccc(C[C@@H]2NC(=O)[C@@H](NC(=O)c3ccc(Cl)s3)CCCSC/C=C/CSCCNC(=O)C[C@H]3CCCN3C2=O)cc1 [C3-X35-L4] | 103.2 | 97.2 | 
3 | N#Cc1ccc(C[C@@H]2NC(=O)[C@@H](NC(=O)c3ccc(Cl)s3)CCCSCc3cccc(c3)CSCCNC(=O)C[C@H]3CCCN3C2=O)cc1 [C3-X35-L5] | 107.1 | 100.9 | 
4 | N#Cc1ccc(C[C@@H]2NC(=O)[C@@H](NC(=O)c3ccc(Cl)s3)CCCSCc3ccccc3CSCCNC(=O)C[C@H]3CCCN3C2=O)cc1 [C3-X35-L6] | 96.5 | 93.5 | 
5 | N#Cc1ccc(C[C@@H]2NC(=O)[C@@H](NC(=O)c3ccc(Cl)s3)CCCSCC(=O)CSCCNC(=O)C[C@H]3CCCN3C2=O)cc1 [C3-X35-L7] | 106.1 | 102.1 | 
6 | O=C1C[C@H]2CCCN2C(=O)[C@H](Cc2ccc(C(F)(F)F)cc2)NC(=O)[C@@H](NC(=O)c2ccc(Cl)s2)CCCSCc2cccc(n2)CSCCN1 [C3-X36-L1] | 102.2 | 98.3 | 
7 | O=C1C[C@H]2CCCN2C(=O)[C@H](Cc2ccc(C(F)(F)F)cc2)NC(=O)[C@@H](NC(=O)c2ccc(Cl)s2)CCCSCCS(=O)(=O)CCSCCN1 [C3-X36-L2] | 105.4 | 99.8 | 
8 | O=C1C[C@H]2CCCN2C(=O)[C@H](Cc2ccc(C(F)(F)F)cc2)NC(=O)[C@@H](NC(=O)c2ccc(Cl)s2)CCCSCc2ccc(cc2)CSCCN1 [C3-X36-L3] | 101.9 | 98.7 | 
9 | O=C1C[C@H]2CCCN2C(=O)[C@H](Cc2ccc(C(F)(F)F)cc2)NC(=O)[C@@H](NC(=O)c2ccc(Cl)s2)CCCSC/C=C/CSCCN1 [C3-X36-L4] | 103.6 | 102.0 | 
10 | O=C1C[C@H]2CCCN2C(=O)[C@H](Cc2ccc(C(F)(F)F)cc2)NC(=O)[C@@H](NC(=O)c2ccc(Cl)s2)CCCSCc2cccc(c2)CSCCN1 [C3-X36-L5] | 105.6 | 108.0 | 
11 | O=C1C[C@H]2CCCN2C(=O)[C@H](Cc2ccc(C(F)(F)F)cc2)NC(=O)[C@@H](NC(=O)c2ccc(Cl)s2)CCCSCc2ccccc2CSCCN1 [C3-X36-L6] | 96.6 | 97.7 | 
12 | O=C1CSCCC[C@H](NC(=O)c2ccc(Cl)s2)C(=O)N[C@@H](Cc2ccc(C(F)(F)F)cc2)C(=O)N2CCC[C@@H]2CC(=O)NCCSC1 [C3-X36-L7] | 101.7 | 101.7 | 
13 | Cc1cccc(C[C@@H]2NC(=O)[C@@H](NC(=O)c3ccc(Cl)s3)CCCSCc3cccc(n3)CSCCNC(=O)C[C@H]3CCCN3C2=O)c1 [C3-X37-L1] | 78.3 | 49.4 | 
14 | Cc1cccc(C[C@@H]2NC(=O)[C@@H](NC(=O)c3ccc(Cl)s3)CCCSCCS(=O)(=O)CCSCCNC(=O)C[C@H]3CCCN3C2=O)c1 [C3-X37-L2] | 92.4 | 51.6 | 
15 | Cc1cccc(C[C@@H]2NC(=O)[C@@H](NC(=O)c3ccc(Cl)s3)CCCSCc3ccc(cc3)CSCCNC(=O)C[C@H]3CCCN3C2=O)c1 [C3-X37-L3] | 90.5 | 68.7 | 
16 | Cc1cccc(C[C@@H]2NC(=O)[C@@H](NC(=O)c3ccc(Cl)s3)CCCSC/C=C/CSCCNC(=O)C[C@H]3CCCN3C2=O)c1 [C3-X37-L4] | 84.2 | 63.6 | 
17 | Cc1cccc(C[C@@H]2NC(=O)[C@@H](NC(=O)c3ccc(Cl)s3)CCCSCc3cccc(c3)CSCCNC(=O)C[C@H]3CCCN3C2=O)c1 [C3-X37-L5] | 100.9 | 83.4 | 
18 | Cc1cccc(C[C@@H]2NC(=O)[C@@H](NC(=O)c3ccc(Cl)s3)CCCSCc3ccccc3CSCCNC(=O)C[C@H]3CCCN3C2=O)c1 [C3-X37-L6] | 92.8 | 79.2 | 
19 | Cc1cccc(C[C@@H]2NC(=O)[C@@H](NC(=O)c3ccc(Cl)s3)CCCSCC(=O)CSCCNC(=O)C[C@H]3CCCN3C2=O)c1 [C3-X37-L7] | 84.8 | 58.3 | 
20 | CC(C)NCC(O)COc1cccc2ccccc12 (centres unmarked) [Propranolol, reference compound] |  |  | PAMPA permeability: % permeability ([1]; 50 μM, 12–18 h, acceptor concentration relative to equilibrium): 71 ± 9%; Permeability% Average ([1]; 50 μM, 13 h (Fig. 5d)): 91.0%; Permeability% (single replicates R1–R3) ([1]; 50 μM, 13 h (Fig. 5d), listed as Probranolol): 87.80% and 90.16% and 95.18%; Papp at 50 μM ([1]; PAMPA, pH 7.4): 12.3 ×10⁻⁶ cm/s; Permeability% Average ([1]; top well sample vs theoretical equilibrium sample (TIC), average of R1-R3): 71.1%; Permeability% ([1]; top well sample vs theoretical equilibrium sample (TIC), single replicates R1-R3, listed as Probranolol): 79.61% and 72.27% and 61.48%
